# From paper PMC11233548 (Communications Biology, 2024)
# “Also recorded” adds a separate entry of the source. Where two headings read alike, the source gives them in different places. Starred links: 1 amine or outer side, 2 acyl side, 3 side chain; linkers in the order of their positions; H or OH if unused. Primed or numbered codes have the meaning given here. No end group written: not given here. *: point of attachment. PEG5′ = linker from Fmoc-PEG5-OH (18-amino-4,7,10,13-tetraoxaoctadecanoic acid), O=C(CCOCCOCCOCCOCCCCCN[*:1])[*:2]; fluorescein = fluorescein label on the N-terminal amino group, attached via an aminohexanoic acid linker; FITC = O=C1OC2(c3ccc(O)cc3Oc3cc(O)ccc32)c2ccc(NC(=S)*)cc21; Biotin = O=C1N[C@H]2[C@H](CS[C@H]2CCCCC(=O)*)N1; Ahx = NCCCCCC(=O)O
# B1: L5UR peptide, untagged, expressed in cells (peptide)
# chain: LLRPTAASQSRALGPGAPGGSSRSSLRSRWGRFLLQRGSWTGPRCWPRGFQS
# B2: L5UR peptide, non-labeled (peptide, UniProt P15814 38-89, looked up)
# peptide: LLRPTAASQSRALGPGAPGGSSRSSLRSRWGRFLLQRGSWTGPRCWPRGFQS
# notes: 52-mer L5UR: residues 38-89 of the unique region of the λ5-chain (λ5-UR) of the pre-B-cell receptor; also called full-length peptide of L5UR; source: synthetic peptide; bought: Pepmic Co., China
# B3: FITC-tagged full-length L5UR (peptide, UniProt P15814 38-89, looked up)
# peptide: {FITC-Ahx}-LLRPTAASQSRALGPGAPGGSSRSSLRSRWGRFLLQRGSWTGPRCWPRGFQS
# notes: 52-mer L5UR: residues 38-89 of the unique region of the λ5-chain (λ5-UR) of the pre-B-cell receptor; also called F-L5UR; source: synthetic peptide; bought: Pepmic Co., China
# How the values were obtained:
# GST = experiment: Direct fluorescence polarization binding of F-L5UR to GST (control); settings: 10 nM F-L5UR, n = 3
# Procedure: For the direct binding assay, the GST-B-RBD, or GST, was 2-fold diluted in an assay buffer composed of 50 mM Tris HCl pH 7.4, 50 mM NaCl, 5 mM DTT, and 0.005% (v/v) Tween 20 in a black low volume, round bottom 384-well plate (Corning, #4514). Then 10 nM F-L5UR peptide was added to each well and incubated for 20 min at ~22 °C on a horizontal shaker. The fluorescence polarization measurement was performed on the Clariostar (BMG Labtech) plate reader, using a fluorescence polarization module (λexcitation 482 ± 8 nm and λemission 530 ± 20 nm). The milli fluorescence polarization, mP, was determined from the measured fluorescence intensities, calculated according to, mP=1000×Ih−Iv/Ih+Iv where Iv and Ih are the fluorescence emission intensities detected with vertical and horizontal polarization, respectively. The mP was plotted against the concentration of the GST-RBD and the KD value of the F-L5UR was calculated using a quadratic equation, y=Af+Ab−Af*Lt+KD+x−(Lt+KD+x)^2−4*Lt*x/2Lt
# H-RasG12V nanoclustering [1] = experiment: H-RasG12V nanoclustering-BRET in HEK cells; assay type: cell-based, human; settings: n = 3
# [2] = test system: MIA PaCa-2 cells (pERK, pAkt); experiment: Immunoblot of EGF-induced pERK and pAkt in MIA PaCa-2; assay type: cell-based, human; settings: intermediate concentrations, 2 h
# [3] = test system: Hs 578 T cells (pERK, pAkt); experiment: Immunoblot of EGF-induced pERK and pAkt in Hs 578 T; assay type: cell-based, human; settings: intermediate concentrations, 2 h
# Gal1/B-RBD = Gal1/B-RBD (Homo sapiens, UniProt P15056); experiment: Gal1/B-RBD BRET in HEK cells; assay type: cell-based; settings: peptide added to HEK cells, 0.1 µM to 100 µM, 2 h incubation; donor:acceptor 1:10; n ≥ 2
# Gal1/C-RBD = experiment: FLIM-FRET Gal1/C-RBD interaction in HEK cells; assay type: cell-based, rat Gal1; C-RBD of human C-Raf; HEK cells; settings: mGFP-Gal1 / mRFP-C-RBD 1:3, expression (24 h) of plasmid or compound, n = 3
# H-RasG12V nanoclustering [4] = experiment: Electron microscopy-based analysis of H-RasG12V nanoclustering in BHK cells; assay type: cell-based, baby hamster kidney (BHK) cells; settings: membrane sheets of Gal1-expressing BHK cells; n = 15
# Excerpt: To quantify the nanoclustering of a component integral to the plasma membrane (PM), the apical PM sheets of baby hamster kidney (BHK) cells expressing a GFP-tagged H-Ras construct were fixed with 4% (w/v) PFA and 0.1% (w/v) glutaraldehyde. GFP anchored to the PM sheets was probed with 4.5 nm gold particles pre-coupled to anti-GFP antibody. Following embedment with methyl cellulose, the PM sheets were imaged using transmission electron microscopy (JEOL JEM-1400). Using the coordinates of every gold particle, Ripley’s K-function calculated the extent of nanoclustering of gold particles within a selected 1 μm^2 PM area: K(r)=An^−2∑i≠jwij1(∥xi−xj∥≤r) Lr−r=Kr/π−r where n gold particles populate in an intact area of A; r is the length between 1 and 240 nm; || ^. || indicates Euclidean distance where 1(^.) = 1 if ||xi − xj|| ≤ r and 1(^.) = 0 if ||xi − xj|| > r; K(r) specifies the univariate K-function. wij^−1 is a parameter used for an unbiased edge correction and characterizes the proportion of the circumference of a circle that has the center at xi and radius ||xi-xj||. Monte Carlo simulations estimate the 99% confidence interval (99% C.I.), which is then used to linearly transform K(r) into L(r) − r. On a nanoclustering curve of L(r) − r vs. r, the peak L(r) − r value is used as summary statistics for nanoclustering and is termed as Lmax. […]
# H-RasG12V nanoclustering [5] = experiment: FLIM-FRET H-RasG12V nanoclustering in HEK cells; assay type: cell-based, HEK cells; rat Gal1; settings: donor:acceptor 1:3, expression (24 h), n = 3
# Gal1 [6] = settings: residues 22–45 of L5UR, opposite side of the carbohydrate binding site of Gal1; ref 38 (Elantak et al.); cited from earlier work
# Excerpt: (Supplementary Fig. 2a). […] We hypothesized that the 52-mer L5UR peptide, which was derived from a Gal1 interaction partner, could act as a Raf-RBD/Gal1-interface inhibitor. Its residues 22–45 were previously ... || page 9: Question 3-2. The authors measure the affinity of L5UR to BRAF GST-RBD using fluorescence polarization. The affinity is an increase is 40-fold over the affinity of this peptide to Gal1 – this is a significant enhancement, do the authors have an explanation for this? […] In the pull-downs containing both Gal1 and GST-RBD both proteins are pulled down to equal levels, again this is surprising as one would exp ...
# Gal1 [7] = experiment: Pull-down with biotinylated L5UR, Gal1; assay type: binding; settings: biotinylated L5UR 4 µM, proteins 2 µM; n = 3
# Procedure: (§1) Biotinylated L5UR (bio-L5UR) peptide was synthesized as described above with a PEG5-linker to link the biotin to the L5UR peptide. GST, GST-B-Raf-RBD (155–227), and His-Gal1 were prepared as described above. Each protein in the assay was used at 2 µM concentration, and the peptide was at 4 µM in a reaction of 150 µL. First, peptide and Gal1 were pre-incubated for 30 min at 37 °C, then GST-B-RBD or GST alone was added, and the reaction continued for another hour. Control reaction mixes contained DMSO-vehicle instead of the peptide. At the end of the reaction time, 10 µL of each sample was withdrawn for SDS-PAGE analysis as inputs. For pull-downs, 5 µL of the beads were taken per sample. To prepare the beads, an appropriate volume of the slurry was pipetted into 15 mL falcon tubes and centrifuged at 830×g for 1 min to remove the ethanol-containing supernatant. The falcon tube was topped up to 15 mL with distilled water and centrifuged for 1 min to remove water. This washing step was repeated three times. Finally, the beads were resuspended in distilled water so that the final bead volume was 4× diluted i.e., 20 µL were pipetted to each tube. […] The analysis was done by resolving the samples (8 µL of the input samples and 10 µL of the eluted material) on 4–20% gradient SDS-PAGE gels and analyzed by Western blotting. […]
# GST-B-RBD = GST-B-RBD (Homo sapiens, UniProt P15056); experiment: Pull-down with biotinylated L5UR, GST-B-RBD; assay type: binding; settings: biotinylated L5UR 4 µM, proteins 2 µM; n = 3
# Procedure: as §1
# Gal1 (Homo sapiens) [8] = target: Gal1 (Homo sapiens) (UniProt P09382); settings: cited from earlier work
# Target sequence in this assay (P09382 2-135): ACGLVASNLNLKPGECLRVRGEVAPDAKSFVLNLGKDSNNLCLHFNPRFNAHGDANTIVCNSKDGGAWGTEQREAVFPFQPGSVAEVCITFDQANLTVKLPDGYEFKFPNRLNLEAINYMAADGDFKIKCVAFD
# Gal1 (Homo sapiens) [9] = target: Gal1 (Homo sapiens) (UniProt P09382); settings: cited from earlier work; remark: listed apart in the source
# HEK cells (pERK, pAkt) = assay type: cell-based, human; settings: 2 h, EGF 200 ng/mL 10 min; n = 3–8
# His-tagged Gal1 = experiment: Competitive fluorescence polarization, displacement of F-L5UR from His-tagged Gal1; assay type: binding; settings: F-L5UR (5 nM), Gal1 (5 µM); n = 2
# [10] = target: B-Raf-derived RBD (BRET construct) (UniProt P15056)
# [11] = target: T1, GST-tagged B-Raf-RBD (155-227) (human, UniProt P15056 155-227); experiment: fluorescence polarisation; competitive: non-labeled peptides 3-fold diluted, added to a complex of F-L5UR and RBD (methods: 5 nM and 200 nM; legend of Fig. 2e: 10 nM and 15 µM GST-B-RBD); 30 min at ~22 °C; four-parameter fit; settings: both partners purified
# T1 construct: also called GST-B-RBD; GST-B-Raf-RBD; source: E. coli, purified (glutathione agarose)
# [12] = target: T2, C-Raf-RBD (50-134), purified (human, UniProt P04049 50-134); experiment: as above; settings: both partners purified
# T2 construct: also called C-RBD; source: E. coli, purified (glutathione agarose)
# [13] = target: T2, C-Raf-RBD (50-134), purified; experiment: as above; settings: both partners purified; remark: listed apart in the source
# [14] = target: T1, GST-tagged B-Raf-RBD (155-227); settings: both partners purified
# T1 sequence (P15056 155-227): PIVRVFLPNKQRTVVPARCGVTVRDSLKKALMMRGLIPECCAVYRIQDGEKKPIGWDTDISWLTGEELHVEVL
# Chain of Gal1/B-RBD (P15056 155-227): as above
# Chain of B-Raf-derived RBD (BRET construct) (P15056 155-227): as above
# Chain of GST-B-RBD (P15056 155-227): as above
molecule,measurement,setting,value
F-L5UR: fluorescein attached to N-terminus amino group of L5UR via aminohexanoic acid linker ({fluorescein-Ahx}-LLRPTAASQSRALGPGAPGGSSRSSLRSRWGRFLLQRGSWTGPRCWPRGFQS),binding to GST alone,GST,no binding to GST alone; also recorded: negligible binding
"GRKKRRQRRRPQ [TAT, 12-residue cell penetrating peptide derived from an HIV-protein, reference compound]",effect of peptide on H-RasG12V nanoclustering BRET,"H-RasG12V nanoclustering [1]; peptide added to HEK cells, 0.1 µM to 100 µM, 2 h incubation, donor:acceptor 1:5, 200 ng Gal1 plasmid","Neither the TAT-peptide alone, nor the mutant TAT-mutL5URcore, or the non-TAT peptides L5URcore and mutL5URcore decreased the BRET-signal in either assay"
same,"pERK- and/or pAkt-levels, MIA PaCa-2",[2],apparently non-specific increase in pERK- and/or pAkt-levels
same,"pERK- and/or pAkt-levels, Hs 578 T",[3],apparently non-specific increase in pERK- and/or pAkt-levels
same,effect of peptide on Gal1/B-RBD BRET,Gal1/B-RBD,"Neither the TAT-peptide alone, nor the mutant TAT-mutL5URcore, or the non-TAT peptides L5URcore and mutL5URcore decreased the BRET-signal in either assay"
Ac-LLRPTAASQSRALGPGAPGGSSRSSLRSRWGRFLLQRGSWTGPRCWPRGFQS-NH2 (N-terminus and C-terminus assumed) [L5UR],effect on Gal1/C-RBD FRET,Gal1/C-RBD,decreased the FRET between mGFP-Gal1 and mRFP-C-RBD
same,effect of construct expression on H-RasG12V nanoclustering-BRET without co-expression of Gal1,"H-RasG12V nanoclustering [1]; expression (48 h), HEK cells comparatively devoid of Gal1, donor:acceptor 1:5",very similar effects even without co-expression of Gal1
same,reduction of H-RasG12V nanoclustering-BRET,"H-RasG12V nanoclustering [1]; expression (48 h), co-transfection of 200 ng Gal1 plasmid, donor:acceptor 1:5, Fig. 3c",~ 33%
same,disruption of H-RasG12V nanoclustering (Lmax),H-RasG12V nanoclustering [4],disruption of H-RasG12V nanoclustering by L5UR- and L5UR-SNAP construct expression
same,effect on H-RasG12V nanoclustering-FRET,H-RasG12V nanoclustering [5]; Gal1-augmented,decreased the Gal1-augmented H-RasG12V nanoclustering-FRET
same,"effect on H-RasG12V nanoclustering-FRET, N-Gal1",H-RasG12V nanoclustering [5]; dimerization-deficient N-Gal1,had no additional effect
same,Kd,Gal1 [6],310 µM
CN(C)CCNC(=O)COc1c2cccc1Cc1cccc(c1OCC(=O)NCCN(C)C)Cc1cccc(c1OCC(=O)NCCN(C)C)Cc1cccc(c1OCC(=O)NCCN(C)C)C2 [OTX-008],effect on Gal1/C-RBD FRET,Gal1/C-RBD,neither Anginex nor OTX-008 disrupted the Gal1/C-RBD interaction
bio-L5UR: Biotinylated L5UR with a PEG5-linker linking biotin to the L5UR peptide ({Biotin-PEG5′}-LLRPTAASQSRALGPGAPGGSSRSSLRSRWGRFLLQRGSWTGPRCWPRGFQS-NH2),pull-down of Gal1,Gal1 [7],pulled down Gal1 and the GST-B-RBD independently from each other
same,pull-down of GST-B-RBD,GST-B-RBD,pulled down Gal1 and the GST-B-RBD independently from each other
L5UR peptide 22-45 (from UniProt P15814),Kd,Gal1 (Homo sapiens) [8],310 µM
Gal1 (from UniProt P09382),Kd,Gal1 (Homo sapiens) [9],7 µM
"CC(=O)Nc1cccc(-n2c(=O)n(C3CC3)c(=O)c3c(Nc4ccc(I)cc4F)n(C)c(=O)c(C)c32)c1 [trametinib, reference compound]","pAkt levels, HEK","HEK cells (pERK, pAkt)",also upregulated by trametinib
Anginex,effect on Gal1/C-RBD FRET,Gal1/C-RBD,neither Anginex nor OTX-008 disrupted the Gal1/C-RBD interaction
same,displacement of F-L5UR from Gal1,His-tagged Gal1,it can be displaced from purified His-tagged Gal1
B1,reduction of Gal1-enhanced H-RasG12V nanoclustering-BRET in HEK cells on expression of the construct (it blocks Gal1/B-RBD),[10],33%
B2,IC50,[11],2 ± 1 µM
same,IC50,[12],4 ± 1 µM
B3,binding result,[13],binds
same,Kd,[14],7.3 ± 0.7 µM
